Experimental data as given in patent US5449667A, “Amidothiophosphate derivative and insecticide, nematocide and acaricide containing the same as active ingredient” (priority 1993, dated 1995).

What was measured:
[1] = test system: larvae of Culex pipiens pallens; assay: Insecticidal activity against larvae of Culex pipiens pallens; format: in vivo; conditions: 3.5 ppm active ingredient in water, twenty last-instar larvae, after one day
Description: Biological Test 7 Insecticidal Activity Against Larvae of Culex pipiens pallens
Each of emulsifiable concentrates prepared from each of the present compounds according to the formulation example 1 was diluted with water, and 0.7 ml of the diluted solution was added to 100 ml of ion-exchanged water (concentration of active ingredient: 3.5 ppm). Twenty last-instar larvae of Culex pipiens pallens were left in the water. After one day, the activity was evaluated according to the following criteria:
A: Mortality not less than 90%
B: Mortality not less than 10% but less than 90%
C: Mortality less than 10%

[2] = test system: larvae of Diabrotica undecimpunctata; assay: Insecticidal activity against larvae of Diabrotica undecimpunctata; format: in vivo; conditions: 1 ml of 50 ppm on filter paper, approximately thirty eggs, after eight days
Description: Biological Text 5 Insecticidal Activity Against Larvae of Diabrotica undecimpunctata
Filter paper of 5.5 cm in diameter was laid in the bottom of a polyethylene cup (diameter: 5.5 cm). After 1 ml of a 50 ppm aqueous solution obtained by diluting each of the emulsifiable concentrate prepared from each of the present compounds according to the formulation example 1 was dropped on the filter paper and one sprouting corn crop was placed as bait on the paper, approximately thirty eggs of Diabrotica undecimpunctata were left on the filter paper. After eight days, the rate of hatched larvae was examined. The activity were evaluated according to the following criteria:
B: Mortality not less than 90% but less than 100%
C: Mortality less than 90%

[3] = test system: Blattella germanica; assay: Insecticidal activity against Blattella germanica; format: in vivo; conditions: 24 h, 0.7 ml of 500 ppm on filter paper, ten male cockroaches, after one day
Description: Biological Test 3 Insecticidal Avtivity Against Blattella germanica
(§1) Filter paper of 5.5 cm in diameter was laid in the bottom of a polyethylene cup (diameter: 5.5 cm). After 0.7 ml of a 500 ppm aqueous solution obtained by diluting each emulsifiable concentrate prepared from each of the present compounds according to the formulation example 1 was dropped on the filter paper and approximately 30 mg of sucrose was uniformly scattered and put on the filter paper as bait, ten male cockroaches (Blattella germanica) were left in the cup with a cover. After one day, the mortality was examined for the cockroaches.

[4] = test system: Tetranychus cinnabarinus; assay: Activity against Tetranychus cinnabarinus; format: in vivo; parameters: key: -: substantially no damage; +: little damage; ++: heavy damage; conditions: 500 ppm, 15 ml spray plus 2 ml soil injection, kidney bean, after eight days
Description: Biological Test 8 Activity Against Tetranychus cinnabarinus
Ten male mites (Tetranychus cinnabarinus) per leaf were placed on a pot-planted kidney bean (Phasseolus vulgaris: seven days after sowing) and kept in a thermostatic chamber. After six days, 15 ml of a 500 ppm aqueous solution obtained by diluting each emulsifiable concentrate of each of the present compounds according to the formulation example 1 was sprayed in a pot simultaneously with injection of 2 ml of the solution into soil. After eight days, damage to the plant by Tetranychus cinnabarinus was evaluated according to the following criteria:
-: substantially no damage

[5] = test system: Musca domestica; assay: Insecticidal activity against Musca domestica; format: in vivo; conditions: 24 h, 0.7 ml of 500 ppm on filter paper, ten female house flies, after one day
Description: Biological Test 4 Insecticidal Activity Against Musca domestica
as §1, with “scattered,” for “scattered”, “female house flies (Musca domestica)” for “male cockroaches (Blattella germanica)”, “flies.” for “cockroaches.”

[6] = Acute toxicity in oral application to mice; conditions: mouse, in vivo, 30 mg/kg, ICR male mice, after seven days
Description: Biological Test 9 Acute Toxicity in Oral Application to Mice
Each of the present compound was diluted with corn oil to a predetermined concentration. After subjecting the mice to a twenty-hour fasting, 0.1 ml of the diluted solution per 10 g weight was forcibly applied into the stomach of each ICR male 6-week old mouse (weight: 24 to 31 g). The mice were given food and water four hours after the application and thereafter regularly fed and watered, and kept in a cage. After seven days, the mortality was examined for the mice (4 mice/group).

[7] = test system: root-knot nematodes; assay: Activity against root-knot nematodes; format: in vivo; parameters: key: -: substantially no root knots; +: several to ten odds root knots; ++: larger number of root knots (heavier damage than +); conditions: 25 ppm active ingredient in soil, tomato root, after four weeks
Description: Biological Test 6 Activity Against Root-knot Nematodes
One ml of a 500 ppm aqueous solution of each of the present compounds obtained by diluting each emulsifiable concentrate prepared from each of the present compounds according to the formulation example 1 was mixed with 19 g of soil contaminated with root-knot nematodes (concentration of active ingredient in soil: 25 ppm). After the soil was kept at 27° C. for 24 hours, the root of a tomato plant (approximately two weeks after sprouting) in a cup was covered with the soil and some water was given to the plant. After four weeks, damage to the root of the tomato plant was evaluated according to the following criteria:
-: substantially no root knots
+: several to ten odds root knots
++: larger number of root knots (heavier damage than +)

[8] = test system: larvae of Spodoptera litura; assay: Insecticidal activity against larvae of Spodoptera litura; format: in vivo; conditions: 144 h, 4-instar larvae, artificial bait, after six days
Description: Biological Test 1 Insecticidal Activity Against Larvae of Spodoptera litura
Emulsifiable concentrates were prepared for each of the present compounds according to the formulation example 1. Thirteen grams of artificial bait for Spodoptera litura were placed in a polyethylene cup (diameter: 11 cm) and impregnated with 2 ml of the emulsifiable concentrate diluted with water (500 ppm). Ten 4-instar larvae of Spodoptera litura were put in the polyethylene cup. After six days, the mortality of the larvae was examined.

SMILES	Activity [1]	Activity [2]	mortality at 500 ppm [3]	Activity [4]	mortality at 500 ppm [5]	mortality at 168 h [6]	Activity [7]	mortality at 500 ppm [8]
CCOP(=O)(SC(C)CC)N(CC#N)C(=O)OC (stereo not shown) [Compound 9, O-ethyl S-sec-butyl N-cyanomethyl N-methoxycarbonyl phosphoroamidothiolate]	A (Mortality not less than 90%)	A (Mortality 100%)	100%	-	100%	0%	-	100%
CCOP(=O)(SC(C)CC)N(CCC#N)C(=O)SC (stereo not shown) [Compound 13]	A (Mortality not less than 90%)	A (Mortality 100%)	100%	-	100%	0%	-	100%
